The text below walks through data of paper PMC6154319, “Intestinal Transport Characteristics and Metabolism of C-Glucosyl Dihydrochalcone, Aspalathin” (Molecules : A Journal of Synthetic Chemistry and Natural …, 2017).

A short description of one series: in vitro. Particulars: human, Caco-2, Papp (cm/s) a-b × 10^−6. The protocol: Validation of the Caco-2 transport experiments required consideration of three parameters, i.e., firstly, to determine the cytotoxic concentrations of synthetic aspalathin, secondly, the concentration of aspalathin required to ensure HPLC detection in the basolateral compartment, and finally, to assess whether the transport of aspalathin is concentration dependent.
Cells were cultured at 37 °C and 5% CO2 in 95% humidified air in Eagle’s Minimum Essential Medium (EMEM) containing sodium […] pyruvate, supplemented with 2 mM L-glutamine, 1% non-essential amino acids and 10% heat inactivated FBS. Cell cultures were split when 70%–80% confluent, using trypsin/ethylenediaminetetraacetic acid (EDTA). The culture medium, pre-warmed to 37 °C, was refreshed every 2–3 days. Cells were seeded at 1 × 10^4 cells/cm^2 and a sub-cultivation ratio of 1:3 was routinely used. Cells were seeded with the addition of 1% penicillin/streptomycin mixture (10,000 units/mL potassium penicillin and 10,000 µg/mL streptomycin sulphate) at 4 × 10^4 cells/cm^2 onto 0.4 µm polycarbonate 6-well inserts with an insert area of 4.52 cm^2. Cells were used for transport experiments when TEER values across wells were >300 Ω, typically 21–23 days post confluence. Only passages 50–60 were used to prevent phenotypic drift.
The cell monolayers were equilibrated briefly with transport buffer, pH 6.0 (HBSS with 2-(N-morpholino) ethanesulphonic acid (MES)) on the apical side and pH 7.4 (HBSS with HEPES) on the basolateral side, to remove traces of the culture media. Following this, transport buffers were added for 30 min prior to the addition of treatment (inhibitors were added during this step when required, as well as during the subsequent treatment incubation step). After equilibration, the plates containing transport medium were incubated for 30 min at 37 °C at 5% CO2 in 95% humidified air and the TEER value of the monolayer determined. […] For basolateral-to-apical compartment studies, 2.4 mL of treatment at the same concentrations in HBSS (pH 7.4), was added to the basolateral compartment.
To assess whether aspalathin was co-transported with glucose, its transport (100 µM) at both high (20.5 mM) and low (5.5 mM) glucose concentrations, mimicking the intestinal lumen glucose concentrations pre- and post-meals, was monitored. This was followed by experiments performed in the presence and absence of SGLT1 (100 µM phloridzin), GLUT2 (100 µM phloretin) and efflux, PgP (100 µM verapamil) inhibitors.
Samples (1.2 mL) were withdrawn from the basolateral or the apical compartment to measure the concentration of aspalathin uptake and efflux, respectively at 0, 0.5, 1, 1.5, and 2 h under sink conditions (the sample aliquot replaced with equal volume of relevant transport buffer). Sample aliquots (350 µL) were frozen in liquid nitrogen after the addition of ascorbic acid (35 µL of 10% solution) and stored at −65 °C until HPLC analysis. Results were corrected for dilution and expressed as cumulative transport (% of initial dose) as a function of time. Papp (cm/s) for bi-directional transport studies was calculated as previously described. Transport of other major flavonoids in the matrices, i.e., nothofagin, the 3-deoxy analogue of aspalathin and its flavone derivatives, orientin and isoorientin, were also determined.
Lucifer yellow (final concentration 0.1 mM) was used as a membrane integrity marker and co-incubated with the compounds and extracts.
HPLC-DAD analysis of samples from the apical and basolateral compartments was performed in duplicate on an Agilent 1200 system as previously described. Basolateral and apical samples taken after 2 h with pure aspalathin were also analysed using LC-MS (parameters described in [42]) to determine whether aspalathin metabolites were formed in the Caco-2 model.
All experiments were performed in triplicate and the data expressed as mean ± SD, unless otherwise indicated.

Series [1] is described as follows: Acute mouse study, metabolite identification in blood and urine by LC-MS/MS. The format is in vivo. To be noted: oral 50 mg/kg aspalathin, urine over 8 h, tentative identification by LC-MS/MS. As to the method: An acute mouse study was performed under ethical approval from the Ethics Committee for Research on Animals (ECRA) of the South African Medical Research Council (Ref:07/13). Three 8-week old male C57.BKS mice, obtained from the Primate Unit of the South African Medical Research Council (Tygerberg, South Africa), were housed individually in polycarbonate cages with wired lids and kept in a controlled environment of 23–24 °C, 50% humidity, and a 12 h light/dark cycle. Prior to the study, urine was collected from the fasting mice overnight in a metabolic cage. Baseline fasted blood was collected via tail snip into a heparin tube, snap frozen in liquid nitrogen, and stored at −80 °C. Each mouse received a single dose of synthetic aspalathin (50 mg/kg body weight) dissolved in phosphate-buffered saline (PBS) (5 mg/mL) via orogastric gavage. Blood samples were collected and handled as described for fasting at time 0 (pre-gavage), and 1, 2, 4, 6, and 8 h post-gavage. All the samples were collected into the same heparin tube and kept on ice during the experiment. Urine was collected over the 8-h post-gavage monitoring period and the samples were stored at −80 °C until analysis.
(§1) The frozen whole blood samples, as well as the samples incubated with microsomes and controls, were thawed, extracted by protein precipitation using 0.1% formic acid (FA) in acetonitrile, centrifuged and filtered through 0.22 µm polyvinylidene difluoride (PVDF) filters (Merck Millipore, Frankfurter Straße, Darmstadt, Germany). Frozen whole urine samples were thawed and diluted 5 times in 0.1% aqueous FA. Samples were analysed by LC-MS/MS on an Agilent 1200 Rapid Resolution HPLC system (600 bar, Agilent Technologies) coupled to a 4000 QTRAP® (AB Sciex, Framingham, MA, USA) equipped with a Turbo V™ […]. Filtered samples (10 μL), stored on a sample tray maintained at 8 °C, were injected on a Gemini C6-Phenyl column (150 × 2.0 mm, 3 µm particles) (Phenomenex, Santa Clara, CA, USA) at 40 °C. […]

Another series deals with mouse liver microsomes. In words: In vitro incubation of aspalathin in mouse liver microsomes and phosphate buffer. Format: in vitro ADME. As to the method: Synthetic aspalathin (10 µM) was incubated at 37 °C in a solution containing 1 mg/mL microsomes (male Mouse BALB/c, Xenotech, Kansas city, KS, USA), magnesium chloride (5 mM) and nicotinamide adenine dinucleotide phosphate (NADPH) (1 mM) in phosphate buffer (100 mM, pH 7.4), for 1 h while shaking. A control containing all the sample constituents (not incubated), another containing no NADPH, and another containing only the compound in phosphate buffer were also included and handled similarly to the test sample.
as §1

As to `O=c1cc(-c2ccc(O)c(O)c2)oc2cc(O)c([C@@H]3O[C@H](CO)[C@@H](O)[C@H](O)[C@H]3O)c(O)c12` [Isoorientin], the apparent permeability from apical to basolateral (Papp A→B) at 2 h in the series “in vitro” is 1.69 ± 0.2 ×10⁻⁶ cm/s.

For Eriodictyol-C-glucoside [M1], the “metabolite present in mouse urine (relative concentrations)” value in series [1] was “identified”. Also, the “product identified after incubation of aspalathin in mouse liver microsomes” value with mouse liver microsomes (aspalathin 10 µM, 1 mg/mL microsomes, NADPH, 37 °C, 1 h) was “identified”. Further, the “product identified after incubation of aspalathin in phosphate buffer” value with mouse liver microsomes (phosphate buffer pH 7.4) is given as “identified”.

In “in vitro”, `O=c1cc(-c2ccc(O)c(O)c2)oc2c([C@@H]3O[C@H](CO)[C@@H](O)[C@H](O)[C@H]3O)c(O)cc(O)c12` [Orientin] returned a Papp A→B at 2 h of 1.92 ± 0.2 ×10⁻⁶ cm/s.
